Consider 15 molecules from article PMC7187165, “Structure‐Based Design, Synthesis, and Biological Evaluation of Triazole‐Based smHDAC8 Inhibitors” (Chemmedchem, 2020).

Several values for one entry are separate records, joined by “and”; a condition that tells them apart may be missing. Identical values can stand only once. Like-named read-outs stand apart in the source and are kept apart here.

For series [1], the target named is T1, hsHDAC1 (Homo sapiens, UniProt Q13547). In words: In vitro hsHDAC1 inhibition (ZMAL substrate, trypsin developer). It is filed as biochemical. The conditions noted are these: for inhibition at 10 µM: read-out: hsHDAC1 (% inhibition, ZMAL).
T1 sequence (Q13547 whole entry): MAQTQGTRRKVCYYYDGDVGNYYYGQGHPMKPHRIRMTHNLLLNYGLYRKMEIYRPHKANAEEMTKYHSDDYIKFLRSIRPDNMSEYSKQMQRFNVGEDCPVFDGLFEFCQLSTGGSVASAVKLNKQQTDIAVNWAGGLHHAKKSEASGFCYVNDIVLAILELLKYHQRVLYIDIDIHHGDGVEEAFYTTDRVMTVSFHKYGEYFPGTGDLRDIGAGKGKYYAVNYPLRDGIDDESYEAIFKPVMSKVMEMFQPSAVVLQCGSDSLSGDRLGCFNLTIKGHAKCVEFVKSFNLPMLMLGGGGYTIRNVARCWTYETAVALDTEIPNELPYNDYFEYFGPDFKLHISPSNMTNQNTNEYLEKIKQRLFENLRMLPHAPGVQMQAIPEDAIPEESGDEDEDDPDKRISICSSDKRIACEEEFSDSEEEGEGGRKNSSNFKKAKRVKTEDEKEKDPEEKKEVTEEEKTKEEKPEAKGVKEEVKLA
Series [2] has as its system S. mansoni larvae (schistosomula). The series is described as follows: Schistosome viability testing, resazurin-based fluorescence assay. It counts as cell-based, Schistosoma mansoni. The procedure:
Selected compounds (Table 4) were tested for their effects on the viability of S. mansoni larvae (schistosomula) using a resazurin‐based fluorescence assay that measures mitochondrial activity. Assays were carried out in triplicate on two separate batches of schistosomula and the results are expressed as the percentage of the value obtained with the solvent (DMSO). Initial testing was done at 10 μM as part of a high‐throughput screening procedure and compounds provoking at least a 25 % reduction in viability were tested at 20 μM to determine a dose‐response. […] However, the level of reduction obtained was mediocre and this compound was not considered for further testing. […] A variety of schistosome viability assays are currently used in the field [e. g. […] However, since we have compared compounds that a priori have the same biological target, it is unlikely that they will have different effects on the parasite and that a different viability assay, for example based on morphological characteristics,52 would give different results. Nevertheless, in view of the potency of the triazole‐based smHDAC8 inhibitors on the enzyme, their further development, aimed at improving their bioavailability, is justified.
Schistosome viability testing: The resazurin‐based assay to determine the effects of novel inhibitors targeting smHDAC8 on the viability of S. mansoni schistosomula was carried out exactly as previously described.27, 62 Briefly, newly transformed schistosomula (NTS) were obtained in vitro as previously described63 by mechanical transformation of S. mansoni cercaria. A suspension of NTS was prepared at a concentration of 100 per 100 μL using Medium 199 (Invitrogen) supplemented with 10 % fetal calf serum (Gibco), penicillin (50 U×mL^−1), streptomycin (50 μg×mL^−1), and rifampicin (60 μg×mL^−1). Schistosomula were kept in culture for 3 h at 37 °C and 5 % CO2 prior to use in screening. Drug stock solutions of 20 mM in DMSO were used. Mid‐dilutions were performed in 100 % DMSO and 1 μL added to 100 μL/well of M199 medium in black 96 well plates (Nunc, UK) with supplemented Medium 199 and 100 μL of the prepared NTS suspension (100 NTS/well). Live and dead schistosomula (treated with 70 % ethanol) were used as positive and negative controls. Experiments were carried out in triplicate wells in two biological replicates and the compounds were tested at final concentrations of 10 and 20 μM. After 48 h of drug exposure, 20 μL of resazurin solution (Abd Serotec) were added to each well. Finally, after 72 h of exposure, the fluorescence intensity of the highly red fluorescent resorufin product was measured using an excitation wavelength of 530 nm and an emission wavelength of 590 nm in an Infinite M200 Pro microplate reader (TECAN). Background fluorescence of the drug containing medium were determined for each drug dilution using wells containing only DMSO as control.
In general terms: Resazurin is reduced to fluorescent resorufin, in cell work by metabolically active cells.

Series [3] has as its target T2, hsHDAC6 (Homo sapiens, UniProt Q9UBN7).
T2 sequence (Q9UBN7 1-1215): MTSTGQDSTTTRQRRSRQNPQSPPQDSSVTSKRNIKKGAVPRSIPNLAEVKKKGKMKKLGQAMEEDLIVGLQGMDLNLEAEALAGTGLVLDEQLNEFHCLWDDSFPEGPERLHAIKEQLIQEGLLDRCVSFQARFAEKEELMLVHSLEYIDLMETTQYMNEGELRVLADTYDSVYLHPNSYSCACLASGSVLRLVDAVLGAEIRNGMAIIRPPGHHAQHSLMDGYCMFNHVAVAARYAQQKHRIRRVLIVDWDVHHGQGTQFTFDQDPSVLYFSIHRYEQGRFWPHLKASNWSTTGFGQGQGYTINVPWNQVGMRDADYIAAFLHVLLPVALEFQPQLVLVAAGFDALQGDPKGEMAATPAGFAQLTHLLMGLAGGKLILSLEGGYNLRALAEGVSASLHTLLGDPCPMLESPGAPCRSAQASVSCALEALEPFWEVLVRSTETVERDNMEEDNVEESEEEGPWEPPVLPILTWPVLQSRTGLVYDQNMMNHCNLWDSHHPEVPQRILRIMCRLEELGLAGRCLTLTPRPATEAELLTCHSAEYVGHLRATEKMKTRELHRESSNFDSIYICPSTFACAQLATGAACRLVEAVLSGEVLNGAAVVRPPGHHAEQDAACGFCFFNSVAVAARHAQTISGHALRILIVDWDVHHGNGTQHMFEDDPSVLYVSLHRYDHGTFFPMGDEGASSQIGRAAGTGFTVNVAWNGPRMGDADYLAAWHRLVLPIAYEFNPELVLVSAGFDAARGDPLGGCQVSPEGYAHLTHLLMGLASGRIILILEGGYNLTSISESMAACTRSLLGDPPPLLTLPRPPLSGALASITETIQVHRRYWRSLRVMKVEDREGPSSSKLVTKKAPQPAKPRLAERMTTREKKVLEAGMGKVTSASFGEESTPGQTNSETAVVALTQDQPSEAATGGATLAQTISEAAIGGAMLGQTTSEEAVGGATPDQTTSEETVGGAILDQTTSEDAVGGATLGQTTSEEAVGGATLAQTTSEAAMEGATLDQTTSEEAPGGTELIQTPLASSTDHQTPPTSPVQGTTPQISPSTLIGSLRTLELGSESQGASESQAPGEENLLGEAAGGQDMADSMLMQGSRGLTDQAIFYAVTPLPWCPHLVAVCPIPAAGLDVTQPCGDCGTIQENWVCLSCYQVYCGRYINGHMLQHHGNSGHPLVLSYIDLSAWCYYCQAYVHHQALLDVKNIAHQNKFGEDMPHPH
In words: In vitro hsHDAC6 inhibition (ZMAL substrate, trypsin developer). It is filed as biochemical.

Series [4] addresses T3, hsHDAC8 (Homo sapiens, UniProt Q9BY41).
T3 construct: made in house
T3 sequence (Q9BY41 1-377): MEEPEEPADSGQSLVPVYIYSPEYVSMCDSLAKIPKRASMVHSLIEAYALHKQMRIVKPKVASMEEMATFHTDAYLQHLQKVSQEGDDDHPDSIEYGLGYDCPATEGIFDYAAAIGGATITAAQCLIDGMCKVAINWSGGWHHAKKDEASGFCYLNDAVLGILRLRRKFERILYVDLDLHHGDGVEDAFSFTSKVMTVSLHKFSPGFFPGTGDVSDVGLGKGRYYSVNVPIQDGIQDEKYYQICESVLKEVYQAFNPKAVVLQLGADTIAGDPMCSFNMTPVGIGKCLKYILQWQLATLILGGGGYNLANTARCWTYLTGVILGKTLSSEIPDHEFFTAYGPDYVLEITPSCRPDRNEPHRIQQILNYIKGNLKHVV
In words: In vitro hsHDAC8 inhibition, homogeneous fluorescence assay (Fluor de Lys substrate). It is filed as biochemical. Particulars: n=2; mean ± S.E.M.

For series [5], the target named is T4, smHDAC8 (Schistosoma mansoni, UniProt A5H660).
T4 construct: made in house; host or cells: E. coli
T4 sequence (A5H660 1-440): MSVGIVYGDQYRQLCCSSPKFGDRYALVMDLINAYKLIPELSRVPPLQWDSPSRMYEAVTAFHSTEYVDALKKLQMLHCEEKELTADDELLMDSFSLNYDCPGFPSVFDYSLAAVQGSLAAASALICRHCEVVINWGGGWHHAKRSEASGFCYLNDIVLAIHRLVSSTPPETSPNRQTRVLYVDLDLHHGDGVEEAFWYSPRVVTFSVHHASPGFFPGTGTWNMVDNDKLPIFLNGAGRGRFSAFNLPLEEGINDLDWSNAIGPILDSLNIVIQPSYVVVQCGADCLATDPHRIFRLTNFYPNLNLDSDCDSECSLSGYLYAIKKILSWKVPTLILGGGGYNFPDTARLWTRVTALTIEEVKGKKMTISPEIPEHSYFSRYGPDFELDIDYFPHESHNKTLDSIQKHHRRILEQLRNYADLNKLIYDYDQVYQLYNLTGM
In words: biochemical. It is filed as biochemical. Particulars: for inhibition at 10 µM: read-out: smHDAC8 (% inhibition, Fluor de Lys); for inhibition at 5 µM / inhibition at 50 µM: pretest; for inhibition at 5 µM: read-out: smHDAC8 % inhibition @ 5 μM (Fluor de Lys); for inhibition at 50 µM: read-out: smHDAC8 % inhibition @ 50 μM (Fluor de Lys).

Series [6] addresses T1, hsHDAC1. Set-up: method as in PMID 19007204. The conditions noted are these: cited from earlier work.
Series [7] has as its target T3, hsHDAC8. Set-up: method as in PMID 19007204. Particulars: cited from earlier work.
[8] abbreviates: Schistosoma mansoni, 72 h, read-out: % viability of S. mansoni schistosomula.

For the molecule `O=C(NO)c1cn(-c2ccccc2)nn1` [Compound 2 b, N ‐Hydroxy‐1‐phenyl‐1H‐1,2,3‐triazole‐4‐carboxamide], the inhibition (commonly the drop in the measured response relative to a control, in per cent) at 10 µM in series [1] came out at 8.1 ± 1%; in series [5] (@ 10 μM, pretest n=1), 57.9%. Besides, the viability (in general, a read-out of living cells in per cent, often relative to untreated cells) at 10 µM in series [2] (setting [8]) was 92.5%. The IC50 (usually the concentration at which inhibition is half-maximal) turned out to be 42.5 ± 3.64 µM in series [3] (n=2, mean ± S.E.M.); 12.4 ± 1.08 µM in series [4]; 4.44 ± 1.52 µM in series [5].

As for `O=C(NO)c1cn(Cc2ccccc2)nn1` [Compound 2 c], the melting point (usually the temperature of the solid-liquid transition) came to 183 °C. For the same molecule, in series [6], the “inhibition of hsHDAC1 (in words)” value was “weakly inhibit”. For the same molecule, in series [7], the “inhibition of hsHDAC8 (in words)” value was “weakly inhibit”. The inhibition at 10 µM in series [5] (@ 10 μM, pretest n=1) was 39.6%.

Turning to `O=C(NO)c1cn(Cc2ccc(F)cc2)nn1` [Compound 2 d], the inhibition at 10 µM in series [5] (@ 10 μM, pretest n=1) worked out at 36.1%.

The molecule `O=C(NO)c1cn(Cc2ccc(C(F)(F)F)cc2)nn1` [Compound 2 e] yielded a melting point of 192 °C. Also, in series [1], the inhibition at 10 µM was 3.3 ± 2.5%. Further, the inhibition at 10 µM in series [3] (@ 10 μM) stood at 2.2 ± 0.5%. This molecule registered an IC50 in series [4] of 3.47 ± 0.53 µM. The molecule also had an IC50 in series [5] of 5.12 ± 0.64 µM. Besides, the inhibition at 10 µM in series [5] (@ 10 μM, pretest n=1) is 52.5%.

Turning to `Cl.O=C(NO)c1cn(-c2ccc(C#Cc3ccc(CN4CCOCC4)cc3)cc2)nn1` [Compound 2 i], the melting point was 239 °C (dec.). The inhibition at 10 µM in series [5] (@ 10 μM, pretest n=1) turned out to be 48%.

Take `O=C(NO)c1cn(-c2ccc(C#CC#Cc3ccccc3)cc2)nn1` [Compound 2 j, N ‐Hydroxy‐1‐[4‐(4‐phenylbuta‐1,3‐diynyl)phenyl]‐1H‐1,2,3‐triazole‐4‐carboxamide]: in series [5] (@ 10 μM, pretest n=1), the “smHDAC8 (% inhibition, Fluor de Lys)” value is “nearly no inhibitory activity” and the inhibition at 10 µM was 6.8%.

In the case of `O=C(NO)c1cn(-c2ccccc2O)nn1` [Compound 12], in series [5], the inhibition at 5 µM was found to be 19.5% and the inhibition at 50 µM came to 63.5%.

Regarding `O=C(NO)c1cn(-c2cc(Cl)ccc2O)nn1` [Compound 13, 1‐(5‐Chloro‐2‐hydroxyphenyl)‐N‐hydroxy‐1H‐1,2,3‐triazole‐4‐carboxamide], in series [5], the inhibition at 5 µM was determined as 14.5% and the inhibition at 50 µM was determined as 67.3%.

Regarding `O=C(NO)c1cn(-c2cc(Cl)ccc2OCc2ccc3ccccc3c2)nn1` [Compound 16], in series [5], the inhibition at 50 µM is 43.5%.

In the case of `O=C(NO)c1cn(-c2cc(Cl)ccc2OCc2ccc(I)cc2)nn1` [Compound 17, 1‐{5‐Chloro‐2‐[(4‐iodobenzyl)oxy]phenyl}‐N‐hydroxy‐1H‐1,2,3‐triazole‐4‐carboxamide], in series [5], the inhibition at 50 µM came out at 21%.

Consider `Cc1ccc(Oc2ccc(Cl)cc2-n2cc(C(=O)NO)nn2)cc1` [Compound 20], for which, in series [5], the inhibition at 5 µM turned out to be 49.8% and the inhibition at 50 µM is 91.1%.

With `O=C(NO)c1cn(-c2cc(Cl)ccc2Oc2ccc(F)cc2)nn1` [Compound 21, 1‐[5‐Chloro‐2‐(4‐fluorophenoxy)phenyl]‐N‐hydroxy‐1H‐1,2,3‐triazole‐4‐carboxamide], the inhibition at 5 µM in series [1] (@ 5 μM) is 11%; in series [3] (@ 5 μM), -1.5%; in series [5], 66.2%. Moreover, the inhibition at 50 µM in series [1] (@ 50 μM) was determined as 38.2%; in series [3] (@ 50 μM), 34.5%; in series [5] it was 93.4%. Besides, the viability at 10 µM in series [2] (setting [8]) is 82%. The IC50 in series [4] is 2.2 ± 0.68 µM; in series [5] (n=2, mean ± S.E.M., read-out: smHDAC8 IC50 (Fluor de Lys)) it was 0.5 µM and 0.504 µM.

With `O=C(NO)c1cn(-c2ccccc2Oc2ccccc2)nn1` [Compound 28], in series [5], the inhibition at 5 µM worked out at 49.1% and the inhibition at 50 µM worked out at 87.9%.

In the case of `O=C(NO)c1cn(-c2cc(Cl)ccc2Oc2ccccc2)nn1` [Compound 29, 1‐(5‐Chloro‐2‐phenoxyphenyl)‐N‐hydroxy‐1H‐1,2,3‐triazole‐4‐carboxamide], in series [2] (setting [8]), the viability at 10 µM was found to be 64.2% and the viability at 20 µM was determined as 49.9%. Moreover, in series [2] (at 10 and 20 μM), the “reduction in viability of schistosomula (in words)” value was “significant reduction in viability”. Moreover, in series [5], the inhibition at 5 µM worked out at 51.4% and the inhibition at 50 µM was determined as 91.5%.

For the molecule `O=C(NO)c1cn(-c2ccccc2C(=O)c2ccccc2)nn1` [Compound 32, 1‐(2‐Benzoylphenyl)‐N‐hydroxy‐1H‐1,2,3‐triazole‐4‐carboxamide], in series [5], the inhibition at 5 µM was found to be 23.4% and the inhibition at 50 µM was 75.4%.
